Patent publication US6476009B1, “Method for control and treatment of acquired immunodeficiency syndrome (AIDS)” (priority 1985, dated 2002)
Where “and” joins values, the source holds several entries; their conditions need not be identical. Equal entries are not always repeated.

Legend:
variety of cell types = test: Cell growth inhibition in a variety of cell types; format: cell-based
[1] = biological target: HTLV-III reverse transcriptase (Human immunodeficiency virus type 1 group M subtype B, UniProt P03366); test: Purified HTLV-III reverse transcriptase assay; format: biochemical
Description: Source of HTLV-III Reverse Transcriptase and Assay Conditions. HTLV-III reverse transcriptase used in these studies was purified by sequential chromatography on DEAE, cellulose, phosphocellulose and hydroxyapatite. The purified anzyme was stored in 50 mM Tris-HC1 (pH 7.5), 1 mM dithiothreitol (DTT), 0.01% Triton X-100 and 20% glycerol. Reverse transcriptase assays were carried out in a reaction mixture (50 μl)containing 50 mM Tris-HC1 (pH 7.5), 5 mM DTT, 100mM potassium chloride, 0.01% Triton X-100 or NP40, 10 μg/ml (dT)15.(A)n as template primer and/^3H/deoxythymidine triphosphate (/^3H/-dTTP). The reaction mixture was incubated for 1 hour at 37°, and the reaction was stopped by the addition of 50 μg of yeast tRNA and 2 ml of 10% solution of trichloroacetic acid (TCA) containing 1 mM sodium pyrophosphate. The samples were filtered on millipore filters (0.45 μm), washed first with 5% TCA solution (5 times) and then with 2 ml of 70% ethanol. The filters were dried under a heat lamp, scintillation fluid was added and the radioactivity counted in a β-scintillation counter.
The effect of foscarnet on purified HTLV-III reverse transcriptase (RT) was assayed as a function of drug concentration.

[2] = tested on: labial and genital herpes; test: Clinical evaluation of topical formulation against labial and genital herpes; format: in vivo
HTLV-III = test: Replication of HTLV-III in H9 cells (RT activity readout); format: cell-based; settings: Human immunodeficiency virus 1, 144 h
Description: HTLV-III Infection of H9 Cells. H9 cells constitute a human cell line that can be chronically infected with HTLV-III virus. (Science 1984; 224: 497-500). H9 cells were treated with polybrene (2 μg/ml) for 30 min. at 37° C., washed free of polybrene and infected with 2×10^8 HTLV-III virus particles per 4×10^5 H9 cells. […] The cultures were analyzed for HTLV-III reverse transcriptase activity as described above.
The effect of foscarnet on the replication of HTLV-III in H9 cells was determined as a function of both foscarnet concentration and time of incubation.

Uninfected H9 cells = test: Growth inhibition of uninfected H9 cells; format: cell-based; settings: Homo sapiens, 750 μM foscarnet
cytomegalovirus (CMV) = test: Clinical effect of infusion in patients with severe herpesvirus infections; format: in vivo; settings: intravenous constant infusion 1-4 weeks, severe herpesvirus infections mainly CMV
[3] = Steady-state serum level in patients on constant intravenous infusion; settings: constant intravenous infusion for 1-4 weeks, most cases
Description: These patients were given foscarnet intravenously by constant infusion for 1-4 weeks and, at steady state, serum levels of foscarnet reached in most cases were 300-450 μM (100-150 μg/ml).

O=C(O)P(=O)(O)O [foscarnet, trisodium phosphonoformate hexahydrate]
cell growth after removal of the drug (variety of cell types; stationary cells treated with 10 mM foscarnet): normal cell growth can be seen | reversibility of cell growth inhibition (variety of cell types; variety of cell types): reversible | IC50 (variety of cell types; variety of cell types, read-out: concentration inhibiting cell growth by 50%): ~1000 µM | IC50 [1]: 0.1 to 2 µM | mode of inhibition of reverse transcriptase ([1]; with respect to substrate and template): noncompetitive with respect to substrate and uncompetitive with respect to template | clinical activity and tolerability [2]: active and well tolerated | inhibition at 50 µM (HTLV-III; 50 μM foscarnet, 6 days of incubation): 50% | inhibition at 300 µM (HTLV-III; 300 μM foscarnet, six days of incubation): > 95% | inhibition at 750 µM (Uninfected H9 cells): < 50% | clinical effect in treated patients (cytomegalovirus (CMV)): clear indications of a beneficial effect | steady state serum level [3]: 300-450 μM and 100-150 μg/ml
